Laboratory results published in patent US9606123B2, “Compositions and methods for diagnosing and monitoring ovarian cancer progression and treatment” (University of Virginia Patent Foundation, priority 2013, dated 2017).
“Also recorded” adds a separate entry of the source.

What was measured:
[1] = cited from earlier work
A2780Cis cells = experiment: Tumor burden in A2780Cis-tumored mice treated with carboplatin; assay type: in vivo, Athymic nude mice; conditions: mice with platinum-resistant A2780Cis tumors, 25 mg/kg carboplatin weekly IP
Procedure: (§1) FIG. 3. Carboplatin indirectly regulates mesothelial VCAM-1 expression by affecting tumor burden. Athymic nude mice were given an intraperitoneal (IP) injection of A2780 (n=3 per time point) or A2780Cis (n=3 per time point) cells or saline (control, n=2). One week following tumor initiation a group of mice was imaged to obtain baseline values; the remaining mice were treated with 25 mg/kg carboplatin weekly. (A) SPECT/CT images were collected weekly starting 1 week after tumor initiation (week 0); weeks 0, 1 and 2 indicate that time after carboplatin treatment. […] Heart and omentum were removed from each cohort of mice weekly post-carboplatin treatment (x-axis, 0=1 week tumor, no treatment) and the percent injected dose of radioactivity per gram of tissue determined as described above (see FIG. 2). n=3 for each cohort, C=control animals. […]
(§2) To assess VCAM-1 as a marker of chemosensitivity, two cohorts of mice were injected with an isogenic paired cell line with one being resistant and the other sensitive to platinum: The first cohort (n=9) was injected with A2780, platinum sensitive cell line and the second (n=9) with A2780Cis platinum resistant cell line. […] After each timepoint, n=3 animals from each cohort were sacrificed and VCAM-In^111 uptake quantified via biodistribution as described above.

A2780 cells = experiment: Tumor burden in mice bearing platinum-sensitive cells treated with carboplatin; assay type: in vivo, Athymic nude mice; conditions: 25 mg/kg carboplatin weekly IP
Procedure: as §1, §2

[2] = tested on: VCAM-1 expression in mesothelial cells (LP9); experiment: Western analysis of VCAM-1 expression in mesothelial cells (LP9) treated with carboplatin; assay type: cell-based; conditions: LP9 human mesothelial cells; up to 1 μg/ml carboplatin for 24 hours

For N.N.O=C([O-])C1(C(=O)[O-])CCC1.[Pt+2] [carboplatin, cis-Diamine(1,1-cyclobutanedicarboxylato)platinum(II)], the Solubility in water [1] is given as 25 mM, the “Tumor growth / tumor burden under carboplatin” value (A2780Cis cells) is given as “neither was altered; also recorded: continued to grow” and the “Tumor burden following carboplatin treatment” value (A2780 cells) is given as “decreases”. For the same molecule, the “Change in VCAM-1 expression (Western)” value [2] was “no change”.
